SMILES strings stand for the structures.

The test deals with T1, POLγA:A467T (Homo sapiens, UniProt P54098, A467T).
T1 sequence (P54098 1-1239 A467T): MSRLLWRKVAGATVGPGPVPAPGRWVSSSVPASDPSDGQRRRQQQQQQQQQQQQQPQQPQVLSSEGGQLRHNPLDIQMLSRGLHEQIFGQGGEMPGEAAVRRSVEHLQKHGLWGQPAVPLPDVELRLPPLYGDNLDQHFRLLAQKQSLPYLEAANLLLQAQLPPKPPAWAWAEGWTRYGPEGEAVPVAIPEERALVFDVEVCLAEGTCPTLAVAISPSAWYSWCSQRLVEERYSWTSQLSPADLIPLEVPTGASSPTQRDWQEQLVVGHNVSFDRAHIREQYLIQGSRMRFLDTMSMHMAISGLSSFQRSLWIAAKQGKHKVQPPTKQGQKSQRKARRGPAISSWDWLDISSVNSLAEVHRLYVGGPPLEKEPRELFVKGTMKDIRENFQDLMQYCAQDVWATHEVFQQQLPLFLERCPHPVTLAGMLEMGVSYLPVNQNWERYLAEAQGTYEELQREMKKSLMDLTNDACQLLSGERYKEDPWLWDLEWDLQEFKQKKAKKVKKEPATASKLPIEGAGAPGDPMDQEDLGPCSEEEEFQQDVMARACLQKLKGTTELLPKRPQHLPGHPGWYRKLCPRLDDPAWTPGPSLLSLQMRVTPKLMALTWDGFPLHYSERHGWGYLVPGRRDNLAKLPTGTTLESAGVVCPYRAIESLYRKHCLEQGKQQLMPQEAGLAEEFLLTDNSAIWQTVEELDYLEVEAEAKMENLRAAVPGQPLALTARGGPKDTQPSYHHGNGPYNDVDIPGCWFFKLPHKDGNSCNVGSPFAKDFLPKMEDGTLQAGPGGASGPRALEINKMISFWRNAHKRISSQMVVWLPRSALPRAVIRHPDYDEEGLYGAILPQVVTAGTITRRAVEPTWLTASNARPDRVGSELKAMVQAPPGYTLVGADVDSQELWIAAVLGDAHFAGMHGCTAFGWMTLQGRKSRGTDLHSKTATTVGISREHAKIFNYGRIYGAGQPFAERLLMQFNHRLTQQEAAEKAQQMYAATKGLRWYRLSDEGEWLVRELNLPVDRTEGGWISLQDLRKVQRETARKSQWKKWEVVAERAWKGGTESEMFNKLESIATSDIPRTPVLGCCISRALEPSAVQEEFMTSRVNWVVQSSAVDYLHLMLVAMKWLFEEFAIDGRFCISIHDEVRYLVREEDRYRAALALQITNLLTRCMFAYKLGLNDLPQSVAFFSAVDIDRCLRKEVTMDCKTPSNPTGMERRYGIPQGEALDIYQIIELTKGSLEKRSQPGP
T1 sequence (Q9UHN1 1-485 partner): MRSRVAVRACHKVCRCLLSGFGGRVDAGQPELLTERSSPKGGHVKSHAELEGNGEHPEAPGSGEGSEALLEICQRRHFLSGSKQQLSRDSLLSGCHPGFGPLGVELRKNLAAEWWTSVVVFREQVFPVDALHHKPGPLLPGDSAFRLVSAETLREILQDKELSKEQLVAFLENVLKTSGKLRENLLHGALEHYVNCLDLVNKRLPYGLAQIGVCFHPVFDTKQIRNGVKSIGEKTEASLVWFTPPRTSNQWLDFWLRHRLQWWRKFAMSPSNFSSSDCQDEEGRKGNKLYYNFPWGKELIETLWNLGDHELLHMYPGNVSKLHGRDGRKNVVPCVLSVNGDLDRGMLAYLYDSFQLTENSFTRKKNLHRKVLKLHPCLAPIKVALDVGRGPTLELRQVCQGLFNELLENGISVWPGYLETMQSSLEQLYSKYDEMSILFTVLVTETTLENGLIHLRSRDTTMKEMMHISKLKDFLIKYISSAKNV
Briefly: DNA polymerization assay, POLγA:A467T mutant. Type of test: biochemical. The conditions noted are these: stimulation of polymerase activity, primed M13mp18 ssDNA, 37° C. 2 hours; read-out: A467T AC50.
A word on the AC50: it is the midpoint of the concentration-response curve, whichever way the signal moves. Regarding `Cc1cc(S(=O)(=O)Nc2ccc3ccn(C)c3c2)c(C)cc1Cl` [Example 72, 4-chloro-2,5-dimethyl-N-(1-methyl-1H-indol-6-yl)benzenesulfonamide], the AC50 was found to be 37 µM. Turning to `Cc1nc2ccc(NS(=O)(=O)c3cc(C)c(Cl)cc3C)cc2s1` [Example 73, 4-chloro-2,5-dimethyl-N-(2-methylbenzo[d]thiazol-6-yl)benzenesulfonamide], the AC50 was determined as 16 µM.

Consider `Cc1cc(S(=O)(=O)Nc2ccc3nc(-c4ccccc4)sc3c2)c(C)cc1Cl` [Example 74, 4-chloro-2,5-dimethyl-N-(2-phenylbenzo[d]thiazol-6-yl)benzenesulfonamide], for which the concentration at half-maximal activity (AC50) was more than 100 µM. As for `Cc1nc2cc(NS(=O)(=O)c3cc(C)c(Cl)cc3C)ccc2o1` [Example 75, 4-chloro-2,5-dimethyl-N-(2-methylbenzo[d]oxazol-5-yl)benzenesulfonamide], the AC50 was more than 100 µM. `Cc1cc(S(=O)(=O)Nc2cccc(-c3ncc(C4CC4)s3)c2)c(C)cc1Cl` [Example 76, 4-chloro-N-(3-(5-cyclopropylthiazol-2-yl)phenyl)-2,5-dimethylbenzenesulfonamide]: the AC50 was 3 µM. Take `Cc1cc(S(=O)(=O)Nc2ccccc2-c2ncco2)c(C)cc1Cl` [Example 77, 4-chloro-2,5-dimethyl-N-(2-(oxazol-2-yl)phenyl)benzenesulfonamide]: the concentration at half-maximal activity (AC50) is more than 100 µM. Take `Cc1cnc(-c2cccc(S(=O)(=O)Nc3cc(C)c(Cl)cc3C)c2)s1` [Example 78, N-(4-chloro-2,5-dimethylphenyl)-3-(5-methylthiazol-2-yl)benzenesulfonamide]: the half-maximal activity concentration (AC50) is more than 100 µM. In the case of `Cc1cnc(-c2ccccc2NS(=O)(=O)c2cc(C)c(Cl)cc2C)s1` [Example 79, 4-chloro-2,5-dimethyl-N-(2-(5-methylthiazol-2-yl)phenyl)benzenesulfonamide], the AC50 was more than 100 µM. With `Cc1csc(-c2ccccc2NS(=O)(=O)c2cc(C)c(Cl)cc2C)n1` [Example 80, 4-chloro-2,5-dimethyl-N-(2-(4-methylthiazol-2-yl)phenyl)benzenesulfonamide] the figure was more than 100 µM; with `Cc1cc(S(=O)(=O)Nc2csc(-c3ccccc3)n2)c(C)cc1Cl` [Example 81, 4-chloro-2,5-dimethyl-N-(2-phenylthiazol-4-yl)benzenesulfonamide], 3 µM. As for `Cc1cc(S(=O)(=O)NC2CCOc3c(Cl)cccc32)c(C)cc1Cl` (stereo not shown) [Example 82, 4-chloro-N-(8-chlorochroman-4-yl)-2,5-dimethylbenzenesulfonamide], the AC50 is more than 100 µM. In the case of `Cc1cnc(-c2ccc(NS(=O)(=O)c3cc(C)c(Cl)cc3C)cc2)s1` [Example 83, 4-chloro-2,5-dimethyl-N-(4-(5-methylthiazol-2-yl)phenyl)benzenesulfonamide] it was more than 100 µM; in that of `Cc1cc(S(=O)(=O)Nc2cc(-c3ccccc3)no2)c(C)cc1Cl` [Example 84, 4-chloro-2,5-dimethyl-N-(3-phenylisoxazol-5-yl)benzenesulfonamide], more than 100 µM. With `Cc1nc2cccc(NS(=O)(=O)c3cc(C)c(Cl)cc3C)c2s1` [Example 85, 4-chloro-2,5-dimethyl-N-(2-methylbenzo[d]thiazol-7-yl)benzenesulfonamide] the figure was more than 100 µM; with `Cc1cc(S(=O)(=O)Nc2ccc(-c3ncc(CN(C)C)s3)cc2)c(C)cc1Cl` [Example 86, 4-chloro-N-(4-(5-((dimethylamino)methyl)thiazol-2-yl)phenyl)-2,5-dimethylbenzenesulfonamide], more than 100 µM. `COC(=O)c1cnc(-c2cccc(NS(=O)(=O)c3cc(C)c(Cl)cc3C)c2)s1` [Example 88, methyl 2-(3-((4-chloro-2,5-dimethylphenyl)sulfonamido)phenyl) thiazole-5-carboxylate]: the AC50 is more than 100 µM. For the compound `Cc1cc(S(=O)(=O)Nc2cccc(-c3ncc(CO)s3)c2)c(C)cc1Cl` [Example 89, 4-chloro-N-(3-(5-(hydroxymethyl)thiazol-2-yl)phenyl)-2,5-dimethylbenzenesulfonamide], the AC50 amounted to 8 µM. Take `Cc1cc(S(=O)(=O)Nc2cccc(-c3ncc(C(=O)O)s3)c2)c(C)cc1Cl` [Example 90, 2-(3-((4-chloro-2,5-dimethylphenyl)sulfonamido)phenyl) thiazole-5-carboxylic acid]: the half-maximal activity concentration (AC50) is more than 100 µM. In the case of `Cc1cc(S(=O)(=O)Nc2cccc(C(=O)N3CCCN(C(=O)C(C)C)CC3)c2)c(C)cc1Cl` [Example 91, 4-chloro-N-(3-(4-isobutyryl-1,4-diazepane-1-carbonyl)phenyl)-2,5-dimethylbenzenesulfonamide] it was more than 100 µM.

Values taken from patent publication US20260138961A1, “MODULATORS OF MITOCHONDRIAL DNA REPLICATION” (Pretzel Therapeutics, Inc., priority 2022, published 2026).
